Counter-ions that a name gives are not always drawn.
Key:
Format in all cases: biochemical
[1] = biological target: T1, b-Raf V600E Mutant (Homo sapiens, UniProt P15056, V600E); assay: b-Raf V600E mutant HTRF assay with 6H-MEK as substrate (dose response); settings: recombinant human b-Raf residues 416-end with V600E mutation, GST-tag
T1 construct: recombinant human b-Raf residues 416-end containing a V600E mutation; purchased Upstate 14-5M; host or cells: baculovirus, Sf21 insect cells
Description: (§1) Kinase Enzyme Inhibition Assay (IC50)
b-Raf V600E Mutant HTRF Assay with 6H-MEK as Substrate (Dose Response)
The assay utilizes 6H-MEK as the substrate. Upon b-Raf V600E phosphorylation, phosphorylated 6H-MEK is detected with rabbit anti-phospho-MEK1/2, Eu-labeled anti-rabbit, and APC-labeled anti-6H antibodies.
(§2) Reagents and Instruments:
Enzyme: recombinant human b-Raf residues 416-end containing a V600E mutation with N-terminal GST-tag from Upstate; (expressed by baculovirus in Sf21 insect cells), 0.26 mg/mL ([…] assuming a molecular weight of 67.3 kD) Cat. #14-5M, Lot #25633AU, stored at −80° C.
Substrate: WT full-length 6H-MEK from C. Belunis (May 26, 2004), 4.94 mg/mL (154.4 μM assuming a MW of 32 kD) stored at −15° C.
(§3) Antibodies: Rabbit (α-P-(Ser 217/221)-MEK-1/2 Ab (from Cell Signaling, Cat. #9121B, Lot 14); Eu-(α-rabbit IgG (from Wallac, Cat. # AD0083, Lot 318663, 710 ug/mL, 4.4 μM); (α-6H-SureLight-APC (from Martek, Cat. #AD0059H, Lot E012AB01, 3.03 μM).
(§4) Reader: Envision from PerkinElmer, HTRF reading mode with 412 mirror
(§5) Assay Plate Matrix all-black polypropylene plates (Cat. #4344)
(§6) Others: Weidman 384 polypropylene plates (REMP) for compound plate.
(§7) (1) Prepare Kinase Assay Buffer (KAB): 50 mM HEPES (HyClone) pH7, 10 mM MgCl2, 1 mM DTT, 0.1 mM […], and 0.3 mg/ml BSA.
(§8) (2) Prepare 6H-MEK (150 nM) in KAB. Add 12 μl/well to the assay plate.
(§9) (3) Prepare ATP (66 μM) in KAB.
(4) Dilute compounds to 2.4 mM and positive controls to 480 μM in DMSO. Perform 10-point 3× dilution in DMSO. Withdraw 2.5 μl/well of DMSO solution and add to 27.5 μl/well ATP solution in (3).
(§10) (5) Mix, then add 6 μl/well of solution in (4) to the assay plate for a DMSO concentration of 2.1% during MEK phosphorylation.
(6) Prepare b-Raf V600E ([…]) in KAB.
(7) Add 6 μl/well of KAB in columns 1-2 and 6 μl/well of b-Raf V600E in columns 3-24.
(§11) (8) Incubate at 37° C. for 30 min.
(9) Prepare rabbit α-P-(Ser 217/221)-MEK-1/2 Ab (1:200 from stock) in AB1: 50 mM HEPES pH7, 0.2 mg/ml BSA, and 43 mM EDTA.
(§12) (10) To stop reaction, add 6 μl/well of solution from (9) to the assay plate and incubate at 37° C. for 30 min.
(11) Prepare Eu-α-rabbit IgG (9 nM) and α-6H-SureLight-APC (180 nM) in AB2: 50 mM HEPES pH7 and 0.2 mg/ml BSA.
(§13) (12) Add 6 μl/well of solution from (11) to the assay plate.
(§14) (13) For determining the spectrum cross talk factor, prepare 2 samples following steps (1) to (10). For the blank sample, add 6 μl/well of AB2. For the cross talk factor sample, add 6 μl/well of Eu-anti rabbit IgG (9 nM).
(§15) (14) Incubate at room temperature for 1.5 hours.
(§16) (15) Read HTRF signals at 615 nm and 665 nm on the Envision. Normalize HTRF signals after spectrum cross-talk correction.

[2] = biological target: T2, c-Raf (Homo sapiens, UniProt P04049); assay: c-Raf HTRF assay with 6H-MEK as substrate (dose response); settings: cloned human c-Raf with EE-tag
T2 construct: made in house; host or cells: baculovirus, High-5 (Hi5) insect cells, co-infected with FLAG-vSrc virus
Procedure: as §1
c-Raf HTRF Assay with 6H-MEK as Substrate (Dose Response)
The assay utilizes 6H-MEK as the substrate. Upon c-Raf phosphorylation, phosphorylated 6H-MEK is detected with rabbit anti-phospho-MEK1/2, Eu-labeled anti-rabbit, and APC-labeled anti-6H antibodies.
as §2
Enzyme: cloned human c-Raf with EE-tag; phosphorylated (co-expressed with v-src-FLAG in baculovirus Hi5 cells), 0.2 mg/mL (2.74 μM assuming a molecular weight of 73 kD) stored at −15° C.
Substrate: WT full-length 6H-MEK, 4.94 mg/mL (154.4 μM assuming a MW of 32 kD) stored at −15° C.
as §3, §4, §5, §6, §7, §8, §9
(§17) (4) Dilute compounds to 2.4 mM and any positive controls to 480 μM in DMSO. Perform 10-point 3× dilution in DMSO. Withdraw 2.5 μl/well of DMSO solution and add to 27.5 μl/well ATP solution in (3).
as §10
(6) Prepare c-Raf (12 nM) in KAB.
(7) Add 6 μl/well of KAB in columns 1-2 and 6 μl/well of c-Raf in columns 3-24.
as §11
(9) Prepare rabbit (α-P-(Ser 217/221)-MEK-1/2 Ab (1:240 from stock) in AB1: 50 mM HEPES pH7, 0.2 mg/ml BSA, and 43 mM EDTA.
as §12
(11) Prepare Eu-(α-rabbit IgG (9 nM) and (α-6H-SureLight-APC (120 nM) in AB2: 50 mM HEPES pH7 and 0.2 mg/ml BSA.
as §13, §14, §15, §16
Expression and Purification of c-Raf
N terminal EE-tagged c-Raf was expressed in High-5 cells. A five liter culture was co-transfected with virus for EE-c-Raf and FLAG-vSrc at a ratio of 1:2 and harvested after 48 hours. The cell pellet was lysed in TBS containing 5 mM EDTA, 50 mM KF, 20 mM Na pyrophosphate, 20 mM β-glycerolphsphate, 0.5 mM Na VO3, 1% NP-40 (w/v) and Complete Protease Tablets. The lysate was centrifuged at 20,000×g for 1 hour. The supernatant was incubated with 8 ml of anti-EE tag-Protein G Sepharose for 2 hours at 4° C. The resin was then washed with 30 volumes of the above buffer. The c-Raf protein was eluted by incubation with the above buffer containing 100 mg/ml of EE peptide for 1 hour at 4° C. Protein was concentrated using an Amicon Stir Cell with an YM10 membrane. The concentrated protein was dialyzed against TBS containing 1 mM DTT and 30% Glycerol. Protein concentration was determined by the BioRad DC method.
E. coli cells containing the plasmid for the expression of 6H-MEK1 (62-393) were grown in Rich Media and induced with 1 mM IPTG for 24 hours at 22° C. The cell pellet was resuspent in 50 mM potassium phosphate buffer, pH 8.0, 300 mM NaCl, 5 mM MgCl2, 10 mM CHAPS, 2 mM TCEP, and Complete Protease Inhibitor Tablets. Cells were disrupted by sonication. The lysate was cleared by centrifugation at 13,000×g for 45 minutes. […]

[3] = biological target: T3, b-Raf Wild-Type (Homo sapiens, UniProt P15056); assay: b-Raf wild-type HTRF assay with 6H-MEK as substrate (dose response); settings: recombinant human b-Raf wild-type residues 416-end, GST-tag
T3 construct: recombinant human b-Raf residues 416-end; purchased Upstate 14-530M; host or cells: baculovirus, Sf21 insect cells
Procedure: as §1
b-Raf Wild-Type HTRF Assay with 6H-MEK as Substrate (Dose Response)
The assay utilizes 6H-MEK as the substrate. Upon b-Raf WT phosphorylation, phosphorylated 6H-MEK is detected with rabbit anti-phospho-MEK1/2, Eu-labeled anti-rabbit, and APC-labeled anti-6H antibodies.
as §2
Enzyme: recombinant human b-Raf residues 416-end with N-terminal GST-tag from Upstate; (expressed by baculovirus in Sf21 insect cells), 0.26 mg/mL (3.87 μM assuming a molecular weight of 67.2 kD) Cat. #14-530M, Lot #25502AU, stored at −80° C.
Substrate: WT full-length 6H-MEK from C. Belunis (5126104), 4.94 mg/mL (154.4 μM assuming a MW of 32 kD) stored at −15° C.
Antibodies: Rabbit (α-P-(Ser 217/221)-MEK-1/2 Ab (from Cell Signaling, Cat. #9121B, Lot 14); Eu-(α-rabbit IgG (from Wallac, Cat. #AD0083, Lot 318663, 710 ug/mL, 4.4 μM); (α-6H-SureLight-APC (from Martek, Cat. #AD0059H, Lot E012AB01, 3.03 μM).
as §4, §5, §6, §7, §8, §9, §17, §10
(6) Prepare b-Raf WT ([…]) in KAB.
(7) Add 6 μl/well of KAB in columns 1-2 and 6 μl/well of b-Raf WT in columns 3-24.
as §11
(9) Prepare rabbit (α-P-(Ser 217/221)-MEK-1/2 Ab (1:200 from stock) in AB1: 50 mM HEPES pH7, 0.2 mg/ml BSA, and 43 mM EDTA.
as §12
(11) Prepare Eu-(α-rabbit IgG (9 nM) and (α-6H-SureLight-APC (180 nM) in AB2: 50 mM HEPES pH7 and 0.2 mg/ml BSA.
as §13, §14, §15, §16

T3 sequence (P15056 416-766 limits assumed): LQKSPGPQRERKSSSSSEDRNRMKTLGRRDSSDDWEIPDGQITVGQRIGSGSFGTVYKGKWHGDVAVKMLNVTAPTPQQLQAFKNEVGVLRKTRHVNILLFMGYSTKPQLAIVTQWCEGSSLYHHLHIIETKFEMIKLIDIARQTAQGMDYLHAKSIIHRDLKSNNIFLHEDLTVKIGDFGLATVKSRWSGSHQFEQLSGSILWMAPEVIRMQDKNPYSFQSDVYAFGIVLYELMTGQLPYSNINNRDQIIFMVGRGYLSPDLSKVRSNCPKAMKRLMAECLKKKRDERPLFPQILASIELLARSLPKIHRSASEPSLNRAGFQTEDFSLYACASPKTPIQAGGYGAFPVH
T2 sequence (P04049 whole entry): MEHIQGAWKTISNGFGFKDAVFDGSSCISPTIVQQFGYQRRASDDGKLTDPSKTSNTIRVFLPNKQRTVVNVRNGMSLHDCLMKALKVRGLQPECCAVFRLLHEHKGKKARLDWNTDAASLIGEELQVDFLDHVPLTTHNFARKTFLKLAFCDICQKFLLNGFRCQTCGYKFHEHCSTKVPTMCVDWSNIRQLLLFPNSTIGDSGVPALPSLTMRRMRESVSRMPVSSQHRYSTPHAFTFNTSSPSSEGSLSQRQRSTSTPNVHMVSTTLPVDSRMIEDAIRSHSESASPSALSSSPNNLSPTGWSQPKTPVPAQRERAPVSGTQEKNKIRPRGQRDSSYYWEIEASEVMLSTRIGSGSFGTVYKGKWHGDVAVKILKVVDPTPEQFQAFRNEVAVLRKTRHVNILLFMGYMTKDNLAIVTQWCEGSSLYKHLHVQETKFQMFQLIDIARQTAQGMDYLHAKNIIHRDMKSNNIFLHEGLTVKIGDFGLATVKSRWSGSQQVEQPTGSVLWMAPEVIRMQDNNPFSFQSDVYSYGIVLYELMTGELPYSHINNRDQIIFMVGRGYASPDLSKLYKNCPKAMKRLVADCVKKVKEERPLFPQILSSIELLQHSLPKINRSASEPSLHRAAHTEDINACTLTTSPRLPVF
T1 sequence (P15056 416-766 V600E): as the sequence (P15056 416-766 limits assumed) above, with V185E counted along it

IC50 [1] | IC50 [2] | IC50 [3] | SMILES
327 nM | 768 nM | 1300 nM | Cc1nnc(-c2cccc(OCc3csc4c(C(=O)NCCO)cnc(N)c34)c2)o1 [Example 10, 4-Amino-3-[3-(5-methyl-[1,3,4]oxadiazol-2-yl)-phenoxymethyl]-thieno[3,2-c]pyridine-7-carboxylic acid (2-hydroxy-ethyl)-amide]
17 nM | 41 nM | 117 nM | Cc1nnc(-c2ccc(C)c(OCc3csc4c(C(=O)NCCO)cnc(N)c34)c2)o1 [Example 14, 4-Amino-3-[2-methyl-5-(5-methyl-[1,3,4]oxadiazol-2-yl)-phenoxymethyl]-thieno[3,2-c]pyridine-7-carboxylic acid (2-hydroxy-ethyl)-amide trifluoro-acetic acid salt]
> 50000 nM | 11.9 nM | 45 nM | Cc1ccc(-c2cn(C)nn2)cc1OCc1csc2c(C(=O)NCCO)cnc(N)c12 [Example 24, 4-Amino-3-[2-methyl-5-(1-methyl-1H-[1,2,3]triazol-4-yl)-phenoxymethyl]-thieno[3,2-c]pyridine-7-carboxylic acid (2-hydroxy-ethyl)-amide]
920 nM | 17 nM | 5140 nM | Cc1ccc(-c2nnc(-c3ccc(Cl)cc3)o2)cc1OCc1csc2c(C(=O)NCCO)cnc(N)c12 [Example 49, 4-Amino-3-{5-[5-(4-chloro-phenyl)-[1,3,4]oxadiazol-2-yl]-2-methyl-phenoxy-methyl}-thieno[3,2-c]pyridine-7-carboxylic acid (2-hydroxy-ethyl)-amide trifluoroacetic acid salt]

Second part, the compound before the results:

SMILES | IC50 [1] | IC50 [2] | IC50 [3]
CCOC(=O)c1cnc(N)c2c(COc3cccc(-c4nnc(C)o4)c3)csc12 [Example 9, 4-Amino-3-[3-(5-methyl-[1,3,4]oxadiazol-2-yl)-phenoxymethyl]-thieno[3,2-c]pyridine-7-carboxylic acid ethyl ester] | 997 nM | 5420 nM | 12700 nM
COc1ccc(Cn2nnc(-c3cccc(OCc4csc5c(C(=O)NCCO)cnc(N)c45)c3)n2)cc1 [Example 29, 4-Amino-3-{3-[2-(4-methoxy-benzyl)-2H-tetrazol-5-yl]-phenoxymethyl}-thieno[3,2-c]pyridine-7-carboxylic acid (2-hydroxy-ethyl)-amide] | 94 nM | 231 nM | 544 nM
Cn1nnc(-c2cccc(OCc3csc4c(C(=O)NCCO)cnc(N)c34)c2)n1 [Example 33, 4-Amino-3-[3-(2-methyl-2H-tetrazol-5-yl)-phenoxymethyl]-thieno[3,2-c]pyridine-7-carboxylic acid (2-hydroxy-ethyl)-amide] | 258 nM | 341 nM | 1680 nM

— patent publication US7932390B2, “Substituted thieno[3,2-C]pyridine carboxylic acid derivatives” (Hoffman-La Roche Inc., priority 2006, dated 2011)
